How the values were obtained:
[1] = test system: chemotaxis; conditions: cited from earlier work
[2] = test system: RSV; test: Inhibition of RSV infection of A549 monolayers; assay type: cell-based, respiratory syncytial virus (RSV); conditions: prior treatment of A549 monolayers; data not shown
[3] = test system: rA2cpΔ118; test: Inhibition of infectivity of RSV with truncated G protein, HEp-2 plaque assay; assay type: cell-based, respiratory syncytial virus (RSV); conditions: Table 15 Experiment 1; strain rA2cpΔ118; 10 μg/ml, treated 1 h before infection; 5 days
Method: (§1) Virus stocks. Wild type RSV strains A2 and B1 (Wright et al., 1973) and mutant RSV strains cpts248/404 (Ackerlind et al., 1988), rA2 cpts248/404ASH (Crowe et al., 1994) and cp32/D1, deficient in SH and G genes (nucleotides 4064-5462) (Karron et al., 1997), were propagated as previously described (Hancock et al., 1996) in HEp-2 cells (ATCC CCL 23) cultured in complete medium (DMEM supplemented with 2 mM L-glutamine, 2% penicillin/streptomycin and 10% (V/V) FBS, 37° C., 5% CO2). The cp32/D1 mutant was isolated from the B1 strain using methodologies previously described for cp52 (Crowe et al., 1996; Karron et al., 1997). A recombinant RSV, (rA2 cpΔG118) genetically truncated at amino acid 117 of G protein was also used in the investigation. […]
(§2) Inhibition of virus infectivity in vitro. […] Anti-viral activity was also assessed 1 hour after the cells were infected, or following simultaneous exposure of the monolayers to virus in a 1:1 mixture with the indicated doses of chemokines or CCL5 peptides. […]
(§3) Plaque assay. […] Bound antibody was detected using 0.05% 4-chloro-1-naphtol containing 0.1% H2O2 in PBS. After enumeration of plaques, the mean percent infectivity (±1 standard deviation of triplicate wells) was calculated relative to monolayers exposed to virus in culture medium alone without chemokine or anti-chemokine receptor antibody. […]

[4] = test system: cp-RSV; test: Inhibition of infectivity of cp-RSV, HEp-2 plaque assay; assay type: cell-based, respiratory syncytial virus (RSV); conditions: Table 15 Experiment 1; strain cp-RSV; 10 μg/ml, treated 1 h before infection
Method: (§4) Inhibition of virus infectivity in vitro. HEp-2 cell monolayers were grown in 96-well tissue culture plates (Falcon, Becton Dickson and Co.; Franklin Lakes, N.J.) with complete medium. The monolayers were pre-treated for 1 hour at 4° C. or 37° C. in triplicate wells with the indicated amounts of recombinant chemokine or anti-chemokine receptor antibody. After removal of chemokine or antibody, the monolayers were infected 1 hour at the same temperature with the denoted wild type or mutant RSV strain and then overlaid with 2% Sephadex (Amersham Biosciences; Piscataway, N.J.). Anti-viral activity was also assessed 1 hour after the cells were infected, or following simultaneous exposure of the monolayers to virus in a 1:1 mixture with the indicated doses of chemokines or CCL5 peptides. The inhibitory properties of the anti-chemokine receptor antibodies were tested alone or in combination at doses ranging from 5 to 100 μg/ml culture medium.
(§5) Plaque assay. […] Bound antibody was detected using 0.05% 4-chloro-1-naphtol containing 0.1% H2O2 in PBS. After enumeration of plaques, the mean percent infectivity (±1 standard deviation of triplicate wells) was calculated relative to monolayers exposed to virus in culture medium alone without chemokine or anti-chemokine receptor antibody.

[5] = test system: rA2 cpts248/404ΔSH; test: Inhibition of infectivity of mutant RSV strain lacking SH protein, HEp-2 plaque assay; assay type: cell-based, respiratory syncytial virus (RSV); conditions: strain 248/404ΔSH, 10 μg/ml, treated 1 h before infection, 5 days
Method: (§6) Virus stocks. Wild type RSV strains A2 and B1 (Wright et al., 1973) and mutant RSV strains cpts248/404 (Ackerlind et al., 1988), rA2 cpts248/404ASH (Crowe et al., 1994) and cp32/D1, deficient in SH and G genes (nucleotides 4064-5462) (Karron et al., 1997), were propagated as previously described (Hancock et al., 1996) in HEp-2 cells (ATCC CCL 23) cultured in complete medium (DMEM supplemented with 2 mM L-glutamine, 2% penicillin/streptomycin and 10% (V/V) FBS, 37° C., 5% CO2). The cp32/D1 mutant was isolated from the B1 strain using methodologies previously described for cp52 (Crowe et al., 1996; Karron et al., 1997). A recombinant RSV, (rA2 cpΔG118) genetically truncated at amino acid 117 of G protein was also used in the investigation. All virus stocks were prepared from cell lysates clarified by low speed (200 g) centrifugation 15 minutes at 4° C.
as §4, with “The inhibitory properties of the anti-chemokine receptor antibodies were tested alone or in combination at doses ranging from 5 to 100 μg/ml culture medium.” left out
as §3

[6] = test system: RSV B1; test: Inhibition of infectivity of wild type RSV B1, HEp-2 plaque assay; assay type: cell-based, respiratory syncytial virus (RSV); conditions: Table 15 Experiment 2; strain B1; 10 μg/ml, treated 1 h before infection; 5 days
Method: as §1, §2, §5

[7] = test system: cp32/D1; test: Inhibition of infectivity of mutant RSV strain lacking SH and G proteins, HEp-2 plaque assay; assay type: cell-based, respiratory syncytial virus (RSV); conditions: Table 15 Experiment 2, 10 μg/ml, treated 1 h before infection, 5 days
Method: as §1, §2, §3

[8] = test system: RSV A2; test: Inhibition of RSV infectivity in vitro, plaque assay on HEp-2 cell monolayers; assay type: cell-based, respiratory syncytial virus (RSV)
Method: as §4
Plaque assay. Virus plaques were visualized as previously described (Hancock et al. 1996) using anti-F protein (L4) mAb (Paradiso et al., 1991; Walsh and Hruska, 1983). Thereafter, cells were rinsed with blotto blocking agent (PBS, 5% powdered milk) and incubated with horseradish peroxidase-conjugated goat anti-mouse IgG (Kirkegaard and Perry Laboratories, Inc.; Gaithersburg, Md.). Bound antibody was detected using 0.05% 4-chloro-1-naphtol containing 0.1% H2O2 in PBS. After enumeration of plaques, the mean percent infectivity (±1 standard deviation of triplicate wells) was calculated relative to monolayers exposed to virus in culture medium alone without chemokine or anti-chemokine receptor antibody.

[9] = test system: HEp-2 cells; test: Binding of biotinylated CCL5 peptides to HEp-2 cell monolayers (ELISA); design: species or system human; conditions: FIG. 3, viable HEp-2 cells at 4° C.
Method: Interaction of CCL5 peptides with HEp-2 cells. An ELISA was used to assess the relative binding of synthetic peptides to HEp-2 cell monolayers. In brief, 96-well plates (Falcon) were seeded with 3×10^4 HEp-2 cells per well in 0.2 ml of complete medium. After overnight incubation (37° C., 5% CO2), the monolayers were cooled on ice for approximately 15 minutes. The biotinylated peptides were added to duplicate wells in ascending doses from 0.49 μg to 500 μg per ml DMEM (supplemented with 1% FBS, 2% penicillin/streptomycin, and 2 mM L-glutamine) and incubated at 4° C. for 1 hour. The monolayers were then fixed (20 minutes at RT) with 80% methanol (J T Baker; Phillipsburg, N.J.). […] Thereafter, the monolayers were incubated (1 hour at RT) with streptavidin-HRP (Zymed; San Francisco, Calif.). The wells were developed with TMB One-Step Substrate Solution (DAKO; Carpinteria, Calif.). Optical density was determined (450 nm, reference at 550 nm) with a Molecular Devices Versamax microplate reader (Sunnyvale, Calif.).

[10] = test system: cpts248/404; test: Inhibition of infectivity of mutant RSV strain 248/404, HEp-2 plaque assay; assay type: cell-based, respiratory syncytial virus (RSV); conditions: treated 1 h before infection, 5 days
Method: as §6
as §4, with “The inhibitory properties of the anti-chemokine receptor antibodies were tested alone or in combination at doses ranging from 5 to 100 μg/ml culture medium.” left out
as §5

[11] = Table 15 Experiment 1, strain A2, 10 μg/ml, treated 1 h before infection, 3 days
[12] = Table 15 Experiment 1, 10 μg/ml

Molecule: Ac-YFYEKIHARPLPRAIYAFC-NH2 [SEQ ID NO:19, retroinverted peptide of CCL5 residues 11-29 in reverse order]
- effect on chemotaxis (in words) [1]: antagonized chemotaxis

Molecule: CCL5: recombinant human chemokine CCL5 (RANTES), full length polypeptide of SEQ ID NO:1
- inhibition of infection with RSV (in words) [2]: inhibited infection with RSV
- Percent Infectivity [3]: 26%
- Percent Infectivity [4]: 64%
- Percent Infectivity ([5]; Table 15 Experiment 1): 34%
- Percent Infectivity ([5]; Table 15 Experiment 2): 13%
- Percent Infectivity [6]: 24%
- Percent Infectivity [7]: 41%
- Percent Infectivity ([8]; Table 10, 1 μg/ml, exposed 1 hour before infection, plaques after 3 days): 73.6 ± 20.6%
- Percent Infectivity ([8]; Table 10, 5 μg/ml, exposed 1 hour before infection, plaques after 3 days): 25.0 ± 7.2%
- Percent Infectivity ([8]; Table 10, 10 μg/ml, exposed 1 hour before infection, plaques after 3 days, relative to control wells (100%)): 29.2 ± 16.7%
- Percent Infectivity ([8]; Table 10, 10 μg/ml, exposed 1 hour before infection, plaques after 3 days, relative to control wells (100%), listed as rCCL5): approximately 30%
- Percent Infectivity ([8]; Table 11, 1 μg/ml, exposed 1 hour before infection, plaques after 3 days): 101.0 ± 4.0%
- Percent Infectivity ([8]; Table 11, 5 μg/ml, exposed 1 hour before infection, plaques after 3 days): 42.0 ± 3.0%
- Percent Infectivity ([8]; Table 11, 10 μg/ml, exposed 1 hour before infection, plaques after 3 days): 16.0 ± 8.0%
- Percent Infectivity ([8]; Table 11, 10 μg/ml, exposed 1 hour before infection, plaques after 3 days, listed as rCCL5): ~20%
- Percent Infectivity ([8]; Table 12, 10 μg/ml, 1 hour after removal of RSV A2 (POST)): 101 ± 12%
- Percent Infectivity ([8]; Table 12, 10 μg/ml, 1 hour prior to infection (PRE)): 22 ± 11%
- Percent Infectivity ([8]; Table 13, 10 μg/ml, 1 hour prior to infection (PRE)): 17
- Percent Infectivity ([8]; Table 13, 10 μg/ml, CCL5 denatured by heat (HEAT)): 75
- Percent Infectivity ([8]; Table 13, 10 μg/ml, simultaneously admixed with RSV (SIM)): 33
- Percent Infectivity ([8]; Table 14, 5 μg, pre-treated 1 hour at 4° C.): 37%
- Percent Infectivity ([8]; Table 14, 5 μg, pre-treated 1 hour at 37° C.): 41%
- Percent Infectivity ([8]; Table 14, 10 μg, pre-treated 1 hour at 4° C.): 23%
- Percent Infectivity ([8]; Table 14, 10 μg, pre-treated 1 hour at 37° C.): 4%
- Percent Infectivity ([8]; Table 14, 20 μg, pre-treated 1 hour at 4° C.): 14%
- Percent Infectivity ([8]; Table 14, 20 μg, pre-treated 1 hour at 4° C., listed as rCCL5): approximately 14%
- Percent Infectivity ([8]; Table 14, 20 μg, pre-treated 1 hour at 37° C.): 16%
- Percent Infectivity [8, 11]: 33%
- Percent Infectivity ([8]; Table 15 Experiment 2, strain A2, 10 μg/ml, treated 1 h before infection, 3 days): 28%
- IC50 ([8]; prior exposure (1 hour) of HEp-2 cell monolayers, read-out: median inhibitory concentration (IC50)): 726 nM
- binding to the epithelial cell monolayer (in words) [9]: readily bound to the epithelial cell monolayer
- Percent Infectivity [10, 12]: 28%
- Percent Infectivity ([10]; Table 15 Experiment 2, 10 μg/ml): 25%

B1: met-CCL5: CCL5 of SEQ ID NO:1 with a methionine NH2-terminal to Ser1; inactive as chemokine agonist (protein, listed as Homo sapiens)
chain: MSPYSSDTTPCCFAYIARPLPRAHIKEYFYTSGKCSNPAVVFVTRKNRQVCANPEKKWVREYINSLEMS
modifications: N-terminal methionine
- Percent Infectivity [3]: 41%
- Percent Infectivity [4]: 64%
- Percent Infectivity ([5]; Table 15 Experiment 1): 32%
- infectivity, percent of control cells ([8]; FIG. 1, 1.25 μg met-CCL5/ml, prior treatment): approximately 80%
- infectivity, percent of control cells ([8]; FIG. 1, 20 μg met-CCL5/ml, pre-treated one hour before infection): approximately 25%
- inhibition of infectivity (in words) ([8]; FIG. 1, doses of 0.313 or 0.156 μg met-CCL5/ml): not inhibitory
- Percent Infectivity [8, 11]: 31%
- Percent Infectivity [10, 12]: 26%

Source: US20070161550A1, “Antiviral compositions which inhibit paramyxovirus infection” (priority 2003, published 2007)
